Among the targets are FRK (Homo sapiens, UniProt P42685); GRK4 (Homo sapiens, UniProt P32298); PIK3CA(I800L) (Homo sapiens, UniProt P42336, I800L); CSF1R (Homo sapiens, UniProt P07333); ABL2 (Homo sapiens, UniProt P42684); MARK2 (Homo sapiens, UniProt Q7KZI7); PKN1 (Homo sapiens, UniProt Q16512); FER (Homo sapiens, UniProt P16591); FGR (Homo sapiens, UniProt P09769).
Common to all, as to assay: biochemical
Holding throughout (design): KINOMEscan scanMAX competition binding, DNA-tagged kinases, qPCR read-out, percent control at 300 nM

For another assay, the target named is T1, TAOK1 (Homo sapiens, UniProt Q7L7X3).
T1 sequence (Q7L7X3 1-1001): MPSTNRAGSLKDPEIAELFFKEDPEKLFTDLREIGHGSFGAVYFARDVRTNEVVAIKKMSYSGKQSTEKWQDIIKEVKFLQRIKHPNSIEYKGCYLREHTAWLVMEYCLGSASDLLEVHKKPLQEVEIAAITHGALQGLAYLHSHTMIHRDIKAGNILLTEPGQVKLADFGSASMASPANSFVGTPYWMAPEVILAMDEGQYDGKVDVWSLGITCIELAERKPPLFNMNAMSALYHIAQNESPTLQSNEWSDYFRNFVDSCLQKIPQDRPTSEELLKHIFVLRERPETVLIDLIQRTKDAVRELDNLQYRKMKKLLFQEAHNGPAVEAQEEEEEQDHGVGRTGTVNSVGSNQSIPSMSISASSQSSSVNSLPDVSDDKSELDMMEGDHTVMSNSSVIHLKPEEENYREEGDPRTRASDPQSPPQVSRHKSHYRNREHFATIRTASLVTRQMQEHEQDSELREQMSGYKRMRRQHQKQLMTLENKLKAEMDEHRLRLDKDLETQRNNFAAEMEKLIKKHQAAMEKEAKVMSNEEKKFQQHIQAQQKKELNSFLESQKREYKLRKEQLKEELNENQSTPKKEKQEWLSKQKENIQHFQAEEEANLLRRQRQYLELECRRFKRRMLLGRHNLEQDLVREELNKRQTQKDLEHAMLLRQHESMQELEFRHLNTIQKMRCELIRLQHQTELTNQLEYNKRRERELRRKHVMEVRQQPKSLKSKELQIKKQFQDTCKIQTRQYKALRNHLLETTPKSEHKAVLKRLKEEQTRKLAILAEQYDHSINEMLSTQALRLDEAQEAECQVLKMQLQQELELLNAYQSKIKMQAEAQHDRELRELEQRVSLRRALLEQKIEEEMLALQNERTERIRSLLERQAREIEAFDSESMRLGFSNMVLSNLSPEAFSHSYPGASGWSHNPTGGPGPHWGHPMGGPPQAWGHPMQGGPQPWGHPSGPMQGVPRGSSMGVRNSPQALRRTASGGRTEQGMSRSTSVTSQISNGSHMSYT

In a further assay the target is T2, p38-delta (Homo sapiens, UniProt O15264).
T2 construct: gene MAPK13
T2 sequence (O15264 1-365): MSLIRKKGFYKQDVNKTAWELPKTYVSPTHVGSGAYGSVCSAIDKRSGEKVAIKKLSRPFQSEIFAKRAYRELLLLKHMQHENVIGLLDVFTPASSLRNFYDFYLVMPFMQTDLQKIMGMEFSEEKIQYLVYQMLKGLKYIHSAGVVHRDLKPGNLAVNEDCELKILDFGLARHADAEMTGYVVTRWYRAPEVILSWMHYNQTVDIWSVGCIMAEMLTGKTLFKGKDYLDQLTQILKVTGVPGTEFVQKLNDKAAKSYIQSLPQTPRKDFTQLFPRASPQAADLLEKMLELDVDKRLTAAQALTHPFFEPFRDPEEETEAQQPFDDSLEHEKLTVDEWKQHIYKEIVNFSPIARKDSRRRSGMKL

The target of another assay is T3, MEK1 (Homo sapiens, UniProt Q02750).
T3 construct: gene MAP2K1

For another assay, the target named is T4, DMPK2 (Homo sapiens, UniProt Q6DT37).
T4 construct: gene CDC42BPG

Setting [1] is: read-out: Percent control / Zanubrutinib.
Setting [2] is: read-out: Percent control / Tirabrutinib.
The mark [3] stands for this setting: read-out: Percent control / Ibrutinib.
Where [4] appears, read: read-out: Percent control / Acalabrutinib.

SMILES strings stand for the structures. Like-named read-outs stand apart in the source and are kept apart here.

Sequence of PKN1 (Q16512 whole entry): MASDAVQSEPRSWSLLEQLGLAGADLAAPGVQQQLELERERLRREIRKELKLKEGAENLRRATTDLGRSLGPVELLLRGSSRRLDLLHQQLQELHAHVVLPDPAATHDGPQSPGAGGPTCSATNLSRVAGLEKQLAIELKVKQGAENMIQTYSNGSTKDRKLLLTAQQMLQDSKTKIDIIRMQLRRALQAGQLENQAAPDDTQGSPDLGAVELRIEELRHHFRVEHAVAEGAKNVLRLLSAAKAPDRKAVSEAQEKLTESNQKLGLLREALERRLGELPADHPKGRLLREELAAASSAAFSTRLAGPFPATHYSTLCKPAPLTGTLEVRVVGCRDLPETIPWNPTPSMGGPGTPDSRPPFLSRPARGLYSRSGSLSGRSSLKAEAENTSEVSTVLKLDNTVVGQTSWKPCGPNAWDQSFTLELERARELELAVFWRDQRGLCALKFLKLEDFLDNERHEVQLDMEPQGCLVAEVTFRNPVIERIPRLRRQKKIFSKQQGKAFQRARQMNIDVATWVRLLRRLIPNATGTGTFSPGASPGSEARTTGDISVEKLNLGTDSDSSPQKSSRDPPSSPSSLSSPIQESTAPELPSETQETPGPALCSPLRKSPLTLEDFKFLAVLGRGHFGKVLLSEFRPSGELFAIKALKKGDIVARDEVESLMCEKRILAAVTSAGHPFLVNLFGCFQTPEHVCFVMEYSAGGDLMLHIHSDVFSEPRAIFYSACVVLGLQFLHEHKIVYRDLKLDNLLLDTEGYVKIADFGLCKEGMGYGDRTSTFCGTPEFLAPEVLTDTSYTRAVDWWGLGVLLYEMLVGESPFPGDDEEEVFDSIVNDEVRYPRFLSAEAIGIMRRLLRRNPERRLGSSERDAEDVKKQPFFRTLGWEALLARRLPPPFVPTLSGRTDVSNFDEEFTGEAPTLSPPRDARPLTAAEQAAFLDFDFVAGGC
Sequence of ABL2 (P42684 whole entry): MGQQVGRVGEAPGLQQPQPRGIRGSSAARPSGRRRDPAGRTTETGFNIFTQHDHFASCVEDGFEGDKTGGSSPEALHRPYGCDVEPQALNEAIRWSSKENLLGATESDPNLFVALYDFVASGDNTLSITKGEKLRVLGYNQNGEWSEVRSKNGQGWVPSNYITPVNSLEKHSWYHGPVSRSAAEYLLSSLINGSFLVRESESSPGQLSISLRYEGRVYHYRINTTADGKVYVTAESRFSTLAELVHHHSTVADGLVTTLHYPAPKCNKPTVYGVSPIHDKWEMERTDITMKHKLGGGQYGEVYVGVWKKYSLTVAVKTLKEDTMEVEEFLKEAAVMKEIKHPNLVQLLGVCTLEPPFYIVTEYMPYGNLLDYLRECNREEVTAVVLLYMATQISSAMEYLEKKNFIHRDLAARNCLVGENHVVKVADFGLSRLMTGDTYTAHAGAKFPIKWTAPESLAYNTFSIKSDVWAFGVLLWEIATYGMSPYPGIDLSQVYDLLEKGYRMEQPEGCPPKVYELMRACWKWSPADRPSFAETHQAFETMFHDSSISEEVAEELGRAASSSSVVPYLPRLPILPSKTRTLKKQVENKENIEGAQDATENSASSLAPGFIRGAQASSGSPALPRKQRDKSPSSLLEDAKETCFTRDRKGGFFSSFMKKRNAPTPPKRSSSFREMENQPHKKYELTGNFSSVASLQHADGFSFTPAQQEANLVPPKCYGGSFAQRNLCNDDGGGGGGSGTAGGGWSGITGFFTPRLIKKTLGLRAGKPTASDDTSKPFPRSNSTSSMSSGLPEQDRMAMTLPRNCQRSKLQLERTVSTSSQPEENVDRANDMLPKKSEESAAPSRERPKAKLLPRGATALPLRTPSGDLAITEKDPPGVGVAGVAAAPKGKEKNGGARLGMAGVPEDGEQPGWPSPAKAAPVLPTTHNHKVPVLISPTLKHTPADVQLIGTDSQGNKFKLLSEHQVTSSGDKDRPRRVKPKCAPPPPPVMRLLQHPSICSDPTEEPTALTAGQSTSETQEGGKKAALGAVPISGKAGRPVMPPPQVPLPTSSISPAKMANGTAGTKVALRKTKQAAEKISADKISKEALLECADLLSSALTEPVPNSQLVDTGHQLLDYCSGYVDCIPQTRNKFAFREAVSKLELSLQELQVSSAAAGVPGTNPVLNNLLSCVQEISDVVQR
Sequence of FGR (P09769 whole entry): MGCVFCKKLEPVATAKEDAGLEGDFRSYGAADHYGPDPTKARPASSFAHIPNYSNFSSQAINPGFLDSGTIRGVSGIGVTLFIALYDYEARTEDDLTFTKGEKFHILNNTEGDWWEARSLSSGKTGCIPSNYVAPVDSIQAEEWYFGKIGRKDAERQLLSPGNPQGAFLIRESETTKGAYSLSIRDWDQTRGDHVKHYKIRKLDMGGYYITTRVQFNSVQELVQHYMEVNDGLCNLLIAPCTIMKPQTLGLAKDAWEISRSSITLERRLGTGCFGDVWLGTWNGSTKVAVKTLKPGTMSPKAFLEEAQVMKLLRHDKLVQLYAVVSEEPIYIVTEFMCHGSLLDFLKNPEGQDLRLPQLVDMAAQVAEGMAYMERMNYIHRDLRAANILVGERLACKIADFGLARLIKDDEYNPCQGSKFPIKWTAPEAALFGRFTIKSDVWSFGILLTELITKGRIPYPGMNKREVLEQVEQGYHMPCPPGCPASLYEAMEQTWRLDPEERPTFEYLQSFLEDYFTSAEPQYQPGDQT
Sequence of MARK2 (Q7KZI7 whole entry): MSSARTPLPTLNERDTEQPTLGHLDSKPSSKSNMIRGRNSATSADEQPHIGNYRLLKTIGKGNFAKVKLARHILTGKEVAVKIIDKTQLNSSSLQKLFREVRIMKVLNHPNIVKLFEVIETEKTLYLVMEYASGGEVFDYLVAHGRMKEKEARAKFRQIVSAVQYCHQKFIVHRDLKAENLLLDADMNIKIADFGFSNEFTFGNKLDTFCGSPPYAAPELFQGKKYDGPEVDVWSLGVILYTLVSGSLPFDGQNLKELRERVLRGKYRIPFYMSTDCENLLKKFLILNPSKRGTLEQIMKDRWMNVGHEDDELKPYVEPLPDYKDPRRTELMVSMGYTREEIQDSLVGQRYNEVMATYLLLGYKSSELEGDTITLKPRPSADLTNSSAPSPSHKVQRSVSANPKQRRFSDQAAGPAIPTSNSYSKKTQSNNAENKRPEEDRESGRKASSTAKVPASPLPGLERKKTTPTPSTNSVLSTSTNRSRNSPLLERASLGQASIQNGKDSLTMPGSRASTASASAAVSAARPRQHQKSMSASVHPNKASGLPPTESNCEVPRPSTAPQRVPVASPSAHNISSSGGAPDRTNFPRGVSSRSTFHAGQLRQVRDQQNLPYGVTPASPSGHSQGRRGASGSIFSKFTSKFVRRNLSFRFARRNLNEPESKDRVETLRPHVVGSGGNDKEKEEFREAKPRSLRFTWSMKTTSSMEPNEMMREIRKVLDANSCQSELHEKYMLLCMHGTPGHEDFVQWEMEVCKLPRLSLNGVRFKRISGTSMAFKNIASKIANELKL
Sequence of PIK3CA(I800L) (P42336 whole entry I800L): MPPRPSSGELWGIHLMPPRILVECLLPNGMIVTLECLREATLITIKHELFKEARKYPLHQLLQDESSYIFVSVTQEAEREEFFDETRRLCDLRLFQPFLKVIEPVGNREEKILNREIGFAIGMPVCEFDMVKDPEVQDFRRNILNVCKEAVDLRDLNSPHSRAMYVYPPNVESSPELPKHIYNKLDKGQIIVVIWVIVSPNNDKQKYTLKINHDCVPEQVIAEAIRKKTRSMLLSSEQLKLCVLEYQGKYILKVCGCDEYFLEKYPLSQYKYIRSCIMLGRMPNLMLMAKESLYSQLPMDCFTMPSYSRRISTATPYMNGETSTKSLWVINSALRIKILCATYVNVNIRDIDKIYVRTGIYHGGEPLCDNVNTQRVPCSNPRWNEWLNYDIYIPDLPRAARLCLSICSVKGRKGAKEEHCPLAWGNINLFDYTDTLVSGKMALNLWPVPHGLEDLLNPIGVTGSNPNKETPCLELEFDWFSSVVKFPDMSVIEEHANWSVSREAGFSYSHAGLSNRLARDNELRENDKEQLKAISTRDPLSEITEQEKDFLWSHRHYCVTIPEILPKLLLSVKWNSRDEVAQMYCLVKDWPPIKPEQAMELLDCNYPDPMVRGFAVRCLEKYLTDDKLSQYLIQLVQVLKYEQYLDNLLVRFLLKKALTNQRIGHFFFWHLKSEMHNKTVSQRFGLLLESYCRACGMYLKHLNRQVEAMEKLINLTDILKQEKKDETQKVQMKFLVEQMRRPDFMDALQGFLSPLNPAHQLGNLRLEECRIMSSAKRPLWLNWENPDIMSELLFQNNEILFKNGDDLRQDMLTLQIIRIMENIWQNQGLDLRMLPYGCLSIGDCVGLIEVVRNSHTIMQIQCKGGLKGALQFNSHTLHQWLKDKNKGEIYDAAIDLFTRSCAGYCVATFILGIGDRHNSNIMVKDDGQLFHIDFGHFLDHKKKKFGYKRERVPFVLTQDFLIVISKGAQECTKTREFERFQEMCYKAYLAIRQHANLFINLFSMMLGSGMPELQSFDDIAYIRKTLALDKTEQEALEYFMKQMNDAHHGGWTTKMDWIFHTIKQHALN
Sequence of FRK (P42685 whole entry): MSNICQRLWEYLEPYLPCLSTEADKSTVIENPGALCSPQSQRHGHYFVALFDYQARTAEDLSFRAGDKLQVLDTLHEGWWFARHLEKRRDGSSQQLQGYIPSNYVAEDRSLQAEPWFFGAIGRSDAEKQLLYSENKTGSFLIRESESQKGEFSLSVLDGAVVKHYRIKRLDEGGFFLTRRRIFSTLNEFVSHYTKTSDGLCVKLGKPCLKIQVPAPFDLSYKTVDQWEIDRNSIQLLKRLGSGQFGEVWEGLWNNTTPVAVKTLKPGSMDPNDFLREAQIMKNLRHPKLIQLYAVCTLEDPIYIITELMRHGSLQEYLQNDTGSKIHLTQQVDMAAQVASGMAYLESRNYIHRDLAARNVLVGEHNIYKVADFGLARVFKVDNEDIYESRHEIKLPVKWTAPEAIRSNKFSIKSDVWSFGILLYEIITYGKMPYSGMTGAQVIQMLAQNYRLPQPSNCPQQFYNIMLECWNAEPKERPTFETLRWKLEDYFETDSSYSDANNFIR

For the compound `C=CC(=O)N1CCC([C@@H]2CCNc3c(C(N)=O)c(-c4ccc(Oc5ccccc5)cc4)nn32)CC1` [Zanubrutinib], the remaining binding at 0.3 µM worked out at 42% at FRK (setting [1]); 63% on TAOK1 (setting [1]); 85% at GRK4 (setting [1]); 68% on PIK3CA(I800L) (setting [1]); 88% at CSF1R (setting [1]); 77% on ABL2 (setting [1]). Moreover, the remaining binding at 0.3 µM was 100% on p38-delta (setting [1]); 90% on MARK2 (setting [1]); 100% on PKN1 (setting [1]); 100% on FER (setting [1]); 4.1% on MEK1 (setting [1]); 66% at FGR (setting [1]).
For the compound `CC#CC(=O)N1CC[C@@H](n2c(=O)n(-c3ccc(Oc4ccccc4)cc3)c3c(N)ncnc32)C1` [Tirabrutinib], the remaining binding at 0.3 µM at TAOK1 (setting [2]) turned out to be 82%; at GRK4 (setting [2]), 74%; at PIK3CA(I800L) (setting [2]), 91%; at p38-delta (setting [2]), 94%; on DMPK2 (setting [2]), 87%; at PKN1 (setting [2]) it was 99%. For the same compound, the remaining binding at 0.3 µM at FER (setting [2]) stood at 93%.
As to `C=CC(=O)N1CCC[C@@H](n2nc(-c3ccc(Oc4ccccc4)cc3)c3c(N)ncnc32)C1` [Ibrutinib], the remaining binding at 0.3 µM turned out to be 32% at FRK (setting [3]); 81% on TAOK1 (setting [3]); 71% at PIK3CA(I800L) (setting [3]); 66% at CSF1R (setting [3]); 82% on ABL2 (setting [3]); 87% at MARK2 (setting [3]). Also, the remaining binding at 0.3 µM on DMPK2 (setting [3]) was 75%; on FER (setting [3]), 94%; at MEK1 (setting [3]) it was 91%; on FGR (setting [3]), 8.6%.
Turning to `CC#CC(=O)N1CCC[C@H]1c1nc(-c2ccc(C(=O)Nc3ccccn3)cc2)c2c(N)nccn12` [Acalabrutinib], the remaining binding at 0.3 µM at FRK (setting [4]) came to 79%; on GRK4 (setting [4]), 89%; at CSF1R (setting [4]), 88%; at ABL2 (setting [4]), 97%; at p38-delta (setting [4]), 95%; at MARK2 (setting [4]), 91%. In addition, the remaining binding at 0.3 µM is 91% on DMPK2 (setting [4]); 81% at PKN1 (setting [4]); 84% on FER (setting [4]); 96% on MEK1 (setting [4]); 94% at FGR (setting [4]).
